Data as given in PubChem BioAssay AID2060896 (Molecular Pharmacology Branch, DTP, NCI, 2025).

Test system: 941728-121-R-J1-PDC complex spheroid viability
Experiment: Anticancer human tumor 941728-121-R-J1-PDC patient-derived lung adenocarcinoma cell line growth inhibition [RAS]
Conditions: for IC50: curve of first compound; for viability, T/C: stronger effect = lower value
How it was run: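 Tumour cells grown as complex spheroids with HUVEC endothelial cells and mesenchymal stem cells, treated with RAS pathway inhibitor combinations. Each agent spans half-log steps from near clinical Cmax, or 10 microM where Cmax is unknown.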
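Also: spheroids exposed to compounds for 7 days before readout.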
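For viability, T/C in this document: 100% = DMSO vehicle control viability.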

Compound: Cc1nc(N2CCC3(CC2)COC(C)C3N)c(CO)nc1Sc1ccnc(N)c1Cl (configuration not stated) + CCn1c(-c2cc(N3CCN(C)CC3)cnc2C(C)OC)c2c3cc(ccc31)-c1csc(n1)CC(NC(=O)C1CC1C)C(=O)N1CCCC(N1)C(=O)OCC(C)(C)C2
- IC50 (second compound 0.000949 µM): < 31.6 nM
- IC50 (second compound 0.003 µM): < 31.6 nM
- IC50 (second compound 0.00949 µM): < 31.6 nM
- IC50 (second compound 0.03 µM): < 31.6 nM
- IC50 (second compound 0.0949 µM): < 31.6 nM
- IC50 (second compound 0.3 µM): < 31.6 nM
- viability, T/C (second compound 0.000949 µM, first compound 0.0316 µM): 25.1%
- viability, T/C (second compound 0.000949 µM, first compound 0.1 µM): 21%
- viability, T/C (second compound 0.000949 µM, first compound 0.316 µM): 14.6%
- viability, T/C (second compound 0.000949 µM, first compound 1 µM): 19.2%
- viability, T/C (second compound 0.000949 µM, first compound 3.16 µM): 18.7%
- viability, T/C (second compound 0.000949 µM, first compound 10 µM): 12.9%
- viability, T/C (second compound 0.003 µM, first compound 0.0316 µM): 19.2%
- viability, T/C (second compound 0.003 µM, first compound 0.1 µM): 17.7%
- viability, T/C (second compound 0.003 µM, first compound 0.316 µM): 13.3%
- viability, T/C (second compound 0.003 µM, first compound 1 µM): 13.4%
- viability, T/C (second compound 0.003 µM, first compound 3.16 µM): 13.6%
- viability, T/C (second compound 0.003 µM, first compound 10 µM): 9.72%
- viability, T/C (second compound 0.00949 µM, first compound 0.0316 µM): 14.6%
- viability, T/C (second compound 0.00949 µM, first compound 0.1 µM): 12%
- viability, T/C (second compound 0.00949 µM, first compound 0.316 µM): 12.8%
- viability, T/C (second compound 0.00949 µM, first compound 1 µM): 13.6%
- viability, T/C (second compound 0.00949 µM, first compound 3.16 µM): 11.9%
- viability, T/C (second compound 0.00949 µM, first compound 10 µM): 11%
- viability, T/C (second compound 0.03 µM, first compound 0.0316 µM): 11.9%
- viability, T/C (second compound 0.03 µM, first compound 0.1 µM): 15.5%
- viability, T/C (second compound 0.03 µM, first compound 0.316 µM): 13.9%
- viability, T/C (second compound 0.03 µM, first compound 1 µM): 13.2%
- viability, T/C (second compound 0.03 µM, first compound 3.16 µM): 9.2%
- viability, T/C (second compound 0.03 µM, first compound 10 µM): 13.5%
- viability, T/C (second compound 0.0949 µM, first compound 0.0316 µM): 13.3%
- viability, T/C (second compound 0.0949 µM, first compound 0.1 µM): 14.4%
- viability, T/C (second compound 0.0949 µM, first compound 0.316 µM): 12.8%
- viability, T/C (second compound 0.0949 µM, first compound 1 µM): 14.3%
- viability, T/C (second compound 0.0949 µM, first compound 3.16 µM): 9.5%
- viability, T/C (second compound 0.0949 µM, first compound 10 µM): 11.1%
- viability, T/C (second compound 0.3 µM, first compound 0.0316 µM): 13.1%
- viability, T/C (second compound 0.3 µM, first compound 0.1 µM): 12.8%
- viability, T/C (second compound 0.3 µM, first compound 0.316 µM): 12.6%
- viability, T/C (second compound 0.3 µM, first compound 1 µM): 11.2%
- viability, T/C (second compound 0.3 µM, first compound 3.16 µM): 12%
- viability, T/C (second compound 0.3 µM, first compound 10 µM): 13.1%
